Reference: ChEMBL document CHEMBL1201862, “PubChem BioAssay data set” (2004)
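A five-concentration, 48-hour dose response in 96-well plates underlies each endpoint, interpolated linearly between surrounding concentrations. GI50: concentration for 50% inhibition of growth.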 Activity calls are given as the source filed them. Rule as the data show it: active = GI50 up to about 1.1 µM and inactive = higher. Where a SMILES comes first, the peptide text is derived from it.

Experiments:
Assay in all cases: inhibition of tumour cell growth, NCI panel, 48 h
786-0 = test system: 786-0
A498 = test system: A498
A549 = test system: A549
CCRF-CEM = test system: CCRF-CEM
COLO 205 = test system: COLO 205
EKVX = test system: EKVX
HL-60 = test system: HL-60
K562 = test system: K562
Malme-3M = test system: Malme-3M
NCI-H460 = test system: NCI-H460
OVCAR-8 = test system: OVCAR-8
SF-268 = test system: SF-268
SN12C = test system: SN12C
SNB-19 = test system: SNB-19
CAKI-1 = test system: CAKI-1
SK-MEL-28 = test system: SK-MEL-28
SK-OV-3 = test system: SK-OV-3

Measured: GI50

C/C(=N\NS(=O)(=O)c1ccc(C)cc1)c1cc2ccccc2n1C
inactive: 786-0 68.7 µM | A498 > 100 µM | A549 > 100 µM | CCRF-CEM > 100 µM | COLO 205 > 100 µM | EKVX 74.3 µM | HL-60 > 100 µM | K562 > 100 µM | Malme-3M > 100 µM | NCI-H460 > 100 µM | OVCAR-8 > 100 µM | SF-268 66.2 µM | SN12C 24.2 µM | SNB-19 69.8 µM

Cn1cnc([N+](=O)[O-])c1Sc1nnc(C(F)(F)F)n1C
inactive: 786-0 39.4 µM | A498 > 100 µM | A549 > 100 µM | CAKI-1 62.1 µM | CCRF-CEM 18.5 µM | COLO 205 14.6 µM | EKVX > 100 µM | K562 23.4 µM | Malme-3M 15.1 µM | NCI-H460 > 100 µM | OVCAR-8 24.9 µM | SF-268 83.6 µM | SK-MEL-28 18.7 µM | SK-OV-3 > 100 µM | SN12C 40.2 µM | SNB-19 > 100 µM

O=C1Nc2c(ccc(Cl)c2I)C1=O
inactive: 786-0 15 µM | A549 34.9 µM | CAKI-1 16.4 µM | CCRF-CEM 20.2 µM | COLO 205 16.3 µM | EKVX 16.4 µM | HL-60 18.5 µM | K562 23.8 µM | Malme-3M 15 µM | NCI-H460 17.9 µM | OVCAR-8 28.2 µM | SF-268 20 µM | SK-MEL-28 18.4 µM | SK-OV-3 18.5 µM | SN12C 17.1 µM | SNB-19 42.3 µM

CCC(C)C1NC(=O)C2CCCN2C(=O)CNC(=O)C(C)NC(=O)C(Cc2ccccc2)NC(=O)C(C(C)C)NC1=O (stereo unspecified) (cyclo(GPIVFA); configuration not given here)
inactive: 786-0 > 100 µM | A498 > 100 µM | A549 > 100 µM | CAKI-1 > 100 µM | COLO 205 > 100 µM | EKVX > 100 µM | Malme-3M > 100 µM | NCI-H460 > 100 µM | OVCAR-8 > 100 µM | SF-268 > 100 µM | SK-MEL-28 > 100 µM | SK-OV-3 > 100 µM | SN12C > 100 µM | SNB-19 > 100 µM

O=C1C(Cl)=C(NCCOCCO)C(=O)c2c(O)ccc(O)c21
inactive: 786-0 4.97 µM | A549 5.75 µM | CAKI-1 23.9 µM | COLO 205 2.17 µM | HL-60 3.89 µM | K562 2.65 µM | Malme-3M 2.82 µM | NCI-H460 3.36 µM | OVCAR-8 7.36 µM | SK-OV-3 17.3 µM | SN12C 11 µM

C=CCCCN1CCCCC1=S
inactive: 786-0 > 100 µM | A549 > 100 µM | CCRF-CEM > 100 µM | COLO 205 > 100 µM | EKVX > 100 µM | HL-60 > 100 µM | K562 > 100 µM | Malme-3M > 100 µM | NCI-H460 > 100 µM | OVCAR-8 > 100 µM | SK-MEL-28 > 100 µM | SK-OV-3 63.4 µM | SN12C > 100 µM | SNB-19 > 100 µM

COc1cc(C=C2C(=O)OC(C)(C)OC2=O)cc(OC)c1OC
inactive: 786-0 > 100 µM | A549 > 100 µM | CAKI-1 > 100 µM | CCRF-CEM > 100 µM | COLO 205 > 100 µM | EKVX > 100 µM | HL-60 > 100 µM | K562 > 100 µM | Malme-3M > 100 µM | NCI-H460 > 100 µM | OVCAR-8 > 100 µM | SF-268 > 100 µM | SK-MEL-28 > 100 µM | SK-OV-3 > 100 µM | SN12C > 100 µM | SNB-19 > 100 µM

CN(C)CCC(O)(c1ccccc1)C(O)(CCN(C)C)c1ccccc1 (stereo unspecified)
inactive: 786-0 > 100 µM | A498 > 100 µM | A549 > 100 µM | CAKI-1 > 100 µM | CCRF-CEM > 100 µM | COLO 205 72.9 µM | EKVX > 100 µM | K562 48.9 µM | Malme-3M 17.7 µM | NCI-H460 > 100 µM | OVCAR-8 > 100 µM | SF-268 > 100 µM | SK-MEL-28 > 100 µM | SK-OV-3 > 100 µM | SN12C > 100 µM | SNB-19 > 100 µM

O=C(c1cccs1)N(C(=S)N1CCN(c2ccccn2)CC1)c1ccccc1
inactive: 786-0 > 100 µM | A549 > 100 µM | CAKI-1 76 µM | CCRF-CEM > 100 µM | COLO 205 > 100 µM | HL-60 > 100 µM | K562 > 100 µM | Malme-3M > 100 µM | NCI-H460 > 100 µM | OVCAR-8 81.7 µM | SF-268 87.3 µM | SK-MEL-28 > 100 µM | SK-OV-3 > 100 µM | SN12C > 100 µM | SNB-19 > 100 µM

O=C(O)C(CO)NC(=O)n1c2ccccc2c2ccccc21 (stereo unspecified)
inactive: 786-0 > 100 µM | A549 > 100 µM | CAKI-1 > 100 µM | CCRF-CEM > 100 µM | COLO 205 > 100 µM | EKVX > 100 µM | HL-60 > 100 µM | K562 > 100 µM | Malme-3M > 100 µM | NCI-H460 > 100 µM | OVCAR-8 > 100 µM | SF-268 > 100 µM | SK-MEL-28 > 100 µM | SK-OV-3 > 100 µM | SN12C > 100 µM | SNB-19 > 100 µM

c1ccc2c(c1)CCc1cc3cc4c(nc3nc1-2)-c1ccccc1CC4
inactive: 786-0 83 µM | A549 > 100 µM | CCRF-CEM > 100 µM | COLO 205 > 100 µM | EKVX > 100 µM | HL-60 > 100 µM | K562 > 100 µM | Malme-3M > 100 µM | NCI-H460 > 100 µM | OVCAR-8 > 100 µM | SF-268 83 µM | SK-MEL-28 > 100 µM | SK-OV-3 > 100 µM | SN12C > 100 µM | SNB-19 > 100 µM

NCCCOc1ccc([N+](=O)[O-])cc1Cl
inactive: 786-0 > 100 µM | A549 > 100 µM | CAKI-1 28.1 µM | CCRF-CEM 42.9 µM | COLO 205 > 100 µM | HL-60 > 100 µM | K562 85.9 µM | Malme-3M > 100 µM | NCI-H460 > 100 µM | OVCAR-8 > 100 µM | SF-268 > 100 µM | SK-MEL-28 > 100 µM | SNB-19 > 100 µM

CC1=C(C(=O)Nc2ccccc2C)C(c2ccco2)C(C(=O)Nc2ccccc2C)=C(C)N1C
inactive: 786-0 > 100 µM | A549 > 100 µM | CAKI-1 > 100 µM | CCRF-CEM 50 µM | EKVX > 100 µM | HL-60 > 100 µM | K562 85.5 µM | Malme-3M > 100 µM | NCI-H460 > 100 µM | OVCAR-8 > 100 µM | SF-268 > 100 µM | SK-MEL-28 > 100 µM | SK-OV-3 > 100 µM | SN12C > 100 µM | SNB-19 > 100 µM
